Data published in ChEMBL document CHEMBL2146431, “Phosphoramidate derivatives of acyclovir: synthesis and antiviral activity in HIV-1 and HSV-1 models in vitro” (Bioorg Med Chem, 2012).
The source made the active and inactive calls. The rule behind the calls is not given here.

What was measured:
Human alphaherpesvirus 1 [1] = experiment: Antiviral activity against acyclovir-resistant HSV1 L2 infected in Vero E6 cells assessed as inhibition of virus-induced cytopathic effect after 48 hrs; format: functional, organism-based; conditions: Human alphaherpesvirus 1, L2, Vero
[2] = tested on: Human immunodeficiency virus 1; experiment: Antiviral activity against HIV1 pseudovirus infected in Jurkat cells coexpressing GFP assessed as viral growth inhibition incubated for 2 to 8 hrs prior to infection measured after 48 hrs by flow cytofluorimetric analysis; format: functional, organism-based
[3] = Cytotoxicity against african green monkey Vero E6 cells after 72 hrs by trypan blue staining; format: cell-based; conditions: chlorocebus sabaeus
[4] = tested on: Human immunodeficiency virus 1; experiment: Antiviral activity against HIV1 pseudovirus infected in Jurkat cells coexpressing GFP assessed as viral growth inhibition up to 100 uM incubated for 2 to 8 hrs prior to infection measured after 48 hrs by flow cytofluorimetric analysis; format: functional, organism-based
[5] = Selectivity ratio of CC50 for african green monkey Vero cells to EC50 for HSV1 L2; format: ADME, cell-based; conditions: read-out: Ratio CC50/EC50
[6] = Selectivity ratio of CC50 for african green monkey Vero cells to EC50 for acyclovir-resistant HSV1 L2; format: ADME, cell-based; conditions: read-out: Ratio CC50/EC50
Human alphaherpesvirus 1 [7] = experiment: Antiviral activity against HSV1 L2 infected in Vero E6 cells assessed as inhibition of virus-induced cytopathic effect after 48 hrs; format: functional, organism-based; conditions: Human alphaherpesvirus 1, L2, Vero
[8] = Half life of the compound in KCl/KOH buffer at pH 12 assessed as acyclovir and acyclovir monophosphate formation by TLC analysis; format: physicochemical
Jurkat = experiment: Cytotoxicity against human Jurkat cells up to 2000 uM after 48 hrs by trypan blue staining; format: cell-based
[9] = Half life of the compound in phosphate buffer at pH 7.4 assessed as acyclovir formation by TLC analysis; format: physicochemical
[10] = tested on: Human immunodeficiency virus 1; experiment: Antiviral activity against HIV1 pseudovirus infected in Jurkat cells coexpressing GFP assessed as viral growth inhibition at 20 uM incubated for 2 to 8 hrs prior to infection measured after 48 hrs by flow cytofluorimetric analysis; format: functional; conditions: Human immunodeficiency virus 1, Jurkat; read-out: GI
Human alphaherpesvirus 1 [11] = experiment: Resistance ratio of EC50 for acyclovir-resistant HSV1 L2 to EC50 for HSV1 L2; format: functional
[12] = Half life of the compound in KCl/HCl buffer at pH 2 assessed as acyclovir monophosphate formation by TLC analysis; format: physicochemical
[13] = tested on: Human immunodeficiency virus 1; experiment: Antiviral activity against HIV1 pseudovirus by cell-based assay; format: functional, organism-based
[14] = Chemical stability of the compound in KCl/HCl buffer at pH 2 assessed as monoamidate formation by TLC analysis; format: physicochemical
[15] = Half life of the compound in KCl/KOH buffer at pH 12 assessed as acyclovir formation by TLC analysis; format: physicochemical

Structure (SMILES)	EC50 (Human alphaherpesvirus 1 [1])	growth inhibition (GI) [2]	CC50 at 72 h [3]	growth inhibition (GI) [4]	selectivity ratio [5]	selectivity ratio [6]	EC50 (Human alphaherpesvirus 1 [7])	t1/2 [8]	Activity (Jurkat)	t1/2 [9]	inhibition of growth at 20 µM [10]	Ratio EC50 (Human alphaherpesvirus 1 [11])	t1/2 [12]	EC50 ([2]; Human immunodeficiency virus 1, Jurkat)	EC50 [13]	Stability [14]	t1/2 [15]
Nc1nc2c(ncn2COCCO)c(=O)[nH]1 [ACYCLOVIR]	530 µM	Dose-dependent effect	> 2000 µM	Active	> 1180	> 3.8	1.7 µM										
N.Nc1nc2c(ncn2COCCOP(=O)(O)N2CCOCC2)c(=O)[nH]1	25 µM	Dose-dependent effect	> 2000 µM	Active	> 206	> 80	9.7 µM	> 120 h	Non-toxic	> 120 h	50%	2.5	< 0.083 h				
Cc1cn([C@H]2C[C@H](N=[N+]=[N-])[C@@H](CO)O2)c(=O)[nH]c1=O [ZIDOVUDINE]														0.09 µM	0.003 µM		
CCCN(CCC)P(=O)(O)OCCOCn1cnc2c(=O)[nH]c(N)nc21.N	37 µM	Dose-dependent effect	> 2000 µM	Active	> 133	> 54	15 µM	96 h	Non-toxic	> 120 h		2.5	< 0.083 h				
Nc1nc2c(ncn2COCCOP(N)(N)=O)c(=O)[nH]1									Non-toxic	4 h			0.083 h			Stable	< 1 h
CN(C)CCCNP(=O)(O)OCCOCn1cnc2c(=O)[nH]c(N)nc21.N								48 h	Non-toxic	> 120 h			< 0.083 h				
CN(C)CCNP(=O)(O)OCCOCn1cnc2c(=O)[nH]c(N)nc21.N								48 h	Non-toxic	> 120 h			< 0.083 h				
CCCCCCNP(=O)(NCCCCCC)OCCOCn1cnc2c(=O)[nH]c(N)nc21									Non-toxic	5 h			0.083 h			Stable	1 h
CCCCCCNP(=O)(O)OCCOCn1cnc2c(=O)[nH]c(N)nc21.N		Dose-dependent effect		Active				48 h	Non-toxic	> 120 h			< 0.083 h				
Nc1nc(=O)c2ncn(COCCOP(=O)(O)O)c2[nH]1	41 µM		> 2000 µM		> 100	> 49	20 µM		Non-toxic								
Nc1nc2c(ncn2COCCOP(=O)(N2CCCC2)N2CCCC2)c(=O)[nH]1									Non-toxic	18 h			0.167 h			Stable	3 h
Nc1nc2c(ncn2COCCOP(=O)(N2CCOCC2)N2CCOCC2)c(=O)[nH]1	> 500 µM		> 2000 µM				> 500 µM		Non-toxic	> 120 h			0.5 h			Stable	18 h
N.Nc1nc2c(ncn2COCCOP(=O)(O)NCCN2CCOCC2)c(=O)[nH]1		Dose-dependent effect		Active				48 h	Non-toxic	> 120 h			< 0.083 h				
N.Nc1nc2c(ncn2COCCOP(=O)(O)N2CCCC2)c(=O)[nH]1		Dose-dependent effect		Active				96 h	Non-toxic	> 120 h			< 0.083 h				
